Structures can show the parent of a compound that is named as a salt.
Columns and labels:
[1] = tested on: NAC; assay: Acetylcholine receptor agonists: nipple erection and sensitivity (Example 13); format: in vivo, human; settings: single topical dose to one NAC, one subject per agent; for Onset Time: 0.4-12.5 mg/cm^2
Experimental: A study was conducted to assess the effectiveness of different acetylcholine receptor agonists on eliciting nipple erection and increasing nipple sensitivity in normal women aged 18-65. Ten subjects were recruited. Each subject was randomly assigned a single agonist. Each subject self-administered a single dose of the agonist to one NAC that was self-reported as the least sensitive (or if no differential sensitivity, then the left NAC). The agonists were applied in topical solutions to the NAC. The subject was supervised by a medical professional. Blood pressure and heart rate were monitored at baseline, 5 minutes, 10 minutes, and 30 minutes. […] Subjects were asked to report if they experienced nipple erection and sensitivity in less than 10 minutes and if the effect lasted more or less than 10 minutes. The subjects all responded to the agonists. The effect was short-lived; however, sensitivity is some of the subjects was reported up 60 minutes later.

[2] = tested on: areola; assay: Dose study of nipple erection and sensitivity, topical oxymetazoline (Example 7); format: in vivo, human; settings: 0.5% topical solution
Experimental: Oxymetazoline HCl 0.1%, 0.2%, 0.5%. A study was conducted to assess the dosage of topical oxymetazoline solution required to elicit nipple erection and sensitivity. Five premenopausal subjects participated in the study. Subjects were not hypertensive, pregnant or breastfeeding. Three formulations were used: Formula A: 0.1% topical oxymetazoline hydrochloride solution; Formula B: 0.2% topical oxymetazoline hydrochloride solution; Formula C: 0.5% topical oxymetazoline hydrochloride solution.
The study was conducted over 3 days. On day 1, subjects were instructed to apply Formula A to both areolas. On day 2, subjects were instructed to apply Formula B to both areolas. On day 3, subjects were instructed to apply Formula C to both areolas. 0.1 mL of each formula was applied using a metered dosage dispenser to each areola. […] With the 0.5% topical oxymetazoline solution, response in nipple erection and sensitivity was obtained approximately within 1 hour and lasted over 8 hours.

SMILES | Nipple Sensitivity Effect Duration [1] [min] | Onset Time [1] [min] | Nipple Erection (Yes/No) [1] | Nipple Sensitivity (Yes/No) [1] | duration of response [2] | time to response in nipple erection and sensitivity [2] [h]
CC(=O)OCC[N+](C)(C)C [Acetylcholine] | <5 | <10 | – | – | – | –
CN1[C@@H](CC(=O)c2ccccc2)CCC[C@H]1C[C@H](O)c1ccccc1 [Alpha-Lobeline] | <10 | <10 | Yes | Yes | – | –
CC(C[N+](C)(C)C)OC(N)=O (stereo not shown) [Bethanechol] | <10 | <10 | Yes | Yes | – | –
C[N+](C)(C)CCOC(N)=O [Carbachol] | <10 | <10 | Yes | Yes | – | –
CC1OC2(CS1)CN1CCC2CC1 (stereo not shown) [Cevimeline] | <10 | <10 | Yes | Yes | – | –
CC(=O)OC(C)C[N+](C)(C)C.[Cl-] (stereo not shown) [Mecholyl] | <10 | <10 | Yes | Yes | – | –
CCN(CC)CCNC(=O)c1cc(Cl)c(N)cc1OC [Metaclopramide] | <10 | <10 | Yes | Yes | – | –
CC(=O)OC(C)C[N+](C)(C)C (stereo not shown) [Methacholine] | <10 | <10 | Yes | Yes | – | –
CN1CCCC1c1cccnc1 (stereo not shown) [Nicotine] | <10 | <10 | Yes | Yes | – | –
CC[C@@H]1C(=O)OC[C@@H]1Cc1cncn1C [Pilocarpine] | <5 | <10 | Yes | Yes | – | –
Cc1cc(C(C)(C)C)c(O)c(C)c1CC1=NCCN1 [oxymetazoline, oxymetazoline hydrochloride] | – | – | – | – | over 8 hours | ≤ 1

— patent publication US20170165253A1, “TREATMENT OF SEXUAL DYSFUNCTION AND FOR IMPROVED SEXUAL QUALITY OF LIFE” (ReJoy, priority 2015, published 2017)
